Among the data in patent US11230526B1, “Cylcoalkenyl derivatives useful as agonists of the GPR120 and/or GPR40 receptors” (Janssen Pharmaceutica NV, priority 2018, dated 2022) are EC50 values, retold here.

What all share (format): cell-based
Assay [1] addresses T1, Human GPR120 short form (Homo sapiens, UniProt Q5NUL3).
T1 construct: expressed in transfected cells
T1 sequence (Q5NUL3 1-361): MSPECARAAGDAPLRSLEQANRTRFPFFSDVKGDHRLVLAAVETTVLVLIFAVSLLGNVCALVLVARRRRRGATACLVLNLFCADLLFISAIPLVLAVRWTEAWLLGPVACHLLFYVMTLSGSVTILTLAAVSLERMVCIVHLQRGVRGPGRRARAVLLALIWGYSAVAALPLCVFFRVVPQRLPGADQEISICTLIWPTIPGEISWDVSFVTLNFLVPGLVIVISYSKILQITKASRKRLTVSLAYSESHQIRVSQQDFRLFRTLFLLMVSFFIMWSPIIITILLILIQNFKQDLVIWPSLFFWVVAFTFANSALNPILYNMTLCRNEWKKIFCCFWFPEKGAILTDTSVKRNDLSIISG
Nature of the assay: Human GPR120 calcium flux assay, Procedure Calcium A (2500 cells/well). The text has this:
Human GPR120 in Calcium Flux Assay
This in vitro assay serves to assess test compound agonist activity against the short splice variant (SVS with Accession number NM_001195755.1 confirmed by sequencing data) of the GPR120 receptor. The Human Short splice variant #2 (NM_001195755.1) is missing an in-frame coding exon compared to variant 1 (the Human Long splice variant NM_181745.3), resulting in a shorter isoform (GPR120-S) lacking a 16 aa protein segment compared to isoform GPR120-L. The assay platform utilizes HEK-293 cells stably transfected to express the Human GPR120 short form. These cells are first loaded with the Ca^+2 sensitive dye, Fluo-4 NW. Upon stimulation, intracellular released Ca^+2 can bind to the dye and alter its fluorescence intensity. This increase in fluorescence signal, and thus the flux in intracellular [Ca^2+], is detected and quantitated by fluorescence imaging using a FLIPR reader. The effect of the agonist is measured as a function of concentration and used to calculate an EC50 based upon a response curve.
In this procedure 2500 cells/well were employed.
A Human GPR120 clone (Genbank accession number NM_001195755.1) was placed into the pcDNA3.1 mammalian expression vector carrying the neomycin resistance gene. A stable mammalian cell was generated by placing the above clone into a HEK293 background. Clonal cells responding to long chain fatty acids had expression levels of GPR120 confirmed by RT-qPCR. Human HEK-GPR120 cells were cultured in Dulbecco's Modified Eagle's Medium (DMEM)/F12 medium supplemented with 10% fetal bovine serum (FBS), 1% L-Glutamine and 1% penicillin/streptomycin and 0.5 mg/ml G-418. Cells were split 2 times a week to keep the cells in the log-phase growth.
In preparation for the assay, HEK cells stably transfected with Human GPR120 (2.5K cells per well in 25 uL growth medium) were seeded into 384-well plates and then incubated overnight (37° C., 5% CO2). The next day, the media was changed to 20 μL assay buffer and the cell starved for 1 h at 37° C. The dye loading solution (2× dye) was prepared using 10 mL assay buffer, 100 μL of 250 mM probenecid, 1 bottle of Component A, and 20 μl of dye in DMSO. Twenty μL of the 2× dye loading buffer was then added to each well. The plates were incubated at 37° C. for 30 min, then at room temperature for an additional 15 minutes, before performing the assay on FLIPR.
The assay was performed on a FLIPR plate reader using the following parameters. Baseline was read for 10 seconds at 1 sec intervals. The program was set to transfer 10 μL of ligand from compound plate to cell plate after baseline reading. Aspiration was executed at: 10 μL/sec speed, 4.6 μL height, Dispensing was executed at: 30 μL/sec speed, 45 μL height. After compound addition, each well was read for 300 sec, with measurements collected at 1 sec intervals.
The kinetic data from the FLIPR was based upon a 5 minute window for data collection. The fluorescence of each sample well was used for individual calculations of a normalized RFU value, which was defined as maximum response minus the minimum response. The normalized fluorescence reading (RFU) was calculated as follows: RFU=Fmax−Fmin
The Fitting Equation was: Y=Bottom+(Top-Bottom)/(1+10^((Log EC50−X)*HillSlope)), where X is the log of the concentration and Y is the response.

Assay [2] has as its target T1, Human GPR120 short form. As to the kind of experiment: Human GPR120 calcium flux assay, Procedure Calcium B (4200 cells/well). The method, boiled down:
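Agonist EC50 came from a four-parameter fit of RFU (Fmax−Fmin) read over 300 s on FLIPR. Cells were HEK293 stably transfected with human GPR120 (NM_001195755.1) at 4200 per well, serum-starved 1 h and loaded with Fluo-4 NW dye with probenecid before ligand addition.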
In general terms: Calcium assays in cells follow changes in intracellular calcium, usually with a dye or a luminescent sensor.

Assay [3] deals with T2, long form of human GPR120 (Homo sapiens, UniProt Q5NUL3).
T2 construct: host or cells: PathHunter CHO-K1 GPR120 β-Arrestin Cell Line
T2 sequence (Q5NUL3 1-377 isoform Q5NUL3-1): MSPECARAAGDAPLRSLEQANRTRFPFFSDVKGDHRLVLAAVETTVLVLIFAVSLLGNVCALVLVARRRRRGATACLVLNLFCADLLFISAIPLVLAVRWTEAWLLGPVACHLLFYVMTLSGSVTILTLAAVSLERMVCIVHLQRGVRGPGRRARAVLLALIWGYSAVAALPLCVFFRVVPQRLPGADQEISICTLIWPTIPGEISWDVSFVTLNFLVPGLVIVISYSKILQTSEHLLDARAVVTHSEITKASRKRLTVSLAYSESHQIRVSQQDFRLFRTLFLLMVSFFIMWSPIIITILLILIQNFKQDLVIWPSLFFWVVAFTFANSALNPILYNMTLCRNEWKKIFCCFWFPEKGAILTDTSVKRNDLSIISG
T2 sequence (P32121 whole entry partner): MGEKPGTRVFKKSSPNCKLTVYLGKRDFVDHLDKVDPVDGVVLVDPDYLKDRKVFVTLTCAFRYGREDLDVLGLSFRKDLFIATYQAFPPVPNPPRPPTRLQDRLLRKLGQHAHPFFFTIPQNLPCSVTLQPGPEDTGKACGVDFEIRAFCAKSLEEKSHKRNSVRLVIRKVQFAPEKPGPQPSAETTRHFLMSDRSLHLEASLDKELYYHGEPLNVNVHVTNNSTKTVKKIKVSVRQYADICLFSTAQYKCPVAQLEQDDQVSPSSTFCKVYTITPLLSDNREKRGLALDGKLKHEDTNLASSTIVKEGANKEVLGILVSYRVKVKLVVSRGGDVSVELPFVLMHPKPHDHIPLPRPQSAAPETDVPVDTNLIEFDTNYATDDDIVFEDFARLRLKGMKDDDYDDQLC
As to the kind of experiment: Human GPR120 DiscoveRx PathHunter Beta-Arrestin assay, Procedure β-arrestin A. The method, boiled down:
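PathHunter CHO-K1 cells expressing long-form human GPR120 (3000/well) were seeded overnight. They were then preincubated 60 min in HBSS with 20 mM HEPES and 0.1% BSA, pH 7.4, and exposed to compound for 90 min at 37 °C. β-Arrestin recruitment was read as β-gal complementation luminescence. EC50 came from % activity versus positive control, Hill slope fixed at 1.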

In a further assay the target is T3, human GPR40 (Homo sapiens, UniProt O14842).
T3 construct: expressed in transfected cells
T3 sequence (O14842 whole entry): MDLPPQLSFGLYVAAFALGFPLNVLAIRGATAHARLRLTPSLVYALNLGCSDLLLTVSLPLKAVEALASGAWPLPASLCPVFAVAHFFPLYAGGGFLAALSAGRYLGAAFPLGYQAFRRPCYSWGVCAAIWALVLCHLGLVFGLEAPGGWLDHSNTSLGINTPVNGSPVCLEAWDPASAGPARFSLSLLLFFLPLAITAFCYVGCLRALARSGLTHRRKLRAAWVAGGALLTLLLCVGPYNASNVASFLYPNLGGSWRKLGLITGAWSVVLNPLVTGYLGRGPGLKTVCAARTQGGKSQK
As to the kind of experiment: GPR40 calcium flux assay, human GPR40. The following applies: HEK293 cells stably expressing GPR40; table does not say human or rat. The gist of the method:
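Cells preincubated 1 h at 37° C. in HBSS, 20 mM HEPES, 0.1% BSA, then Fluo 8 calcium dye 30 min at 37° C. and 15 min at room temperature.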

As a reminder, the EC50 is the concentration needed to bring the measured effect to its halfway point. For `CC(=O)Nc1ccc(C2=C(COc3ccc(CCC(=O)O)c(C)c3C)CCC2)cc1` [Compound 51, 3-[4-[[2-(4-acetamidophenyl)cyclopenten-1-yl]methoxy]-2,3-dimethyl-phenyl]Propanoic Acid], the EC50 on Human GPR120 short form [1] was greater than 20 µM.
On the same count and under the same terms, to `Cc1c(CCC(=O)O)ccc(OCC2=C(c3ccc([S+](C)[O-])cc3)CCC2)c1C` (stereo not shown) [Compound 120, 3-[2,3-dimethyl-4-[[2-(4-methylsulfinylphenyl)cyclopenten-1-yl]methoxy]phenyl]Propanoic Acid] belongs greater than 5 µM.
On to `Cc1c(CCC(=O)O)ccc(OCC2=C(c3ccncc3)CCC2)c1C` [Compound 139, 3-[2,3-dimethyl-4-[[2-(4-pyridyl)cyclopenten-1-yl]methoxy]phenyl]Propanoic Acid], for which the EC50 is 2.45 µM at Human GPR120 short form [1] and 2.47 µM on Human GPR120 short form [2].
On to `CCOc1ccc(C2=C(COc3ccc(CCC(=O)O)c(C)c3C)CCCC2)cc1` [Compound 461, 3-[4-[[2-(4-ethoxyphenyl)cyclohexen-1-yl]methoxy]-2,3-dimethyl-phenyl]Propanoic Acid], for which the EC50 was found to be 2.26 µM on Human GPR120 short form [1] and 1.36 µM on Human GPR120 short form [2].
Taken in the same sequence, the figures for `Cc1c(CCC(=O)O)ccc(OCC2=C(c3ccccc3Cl)CCCC2)c1C` [Compound 464, 3-[4-[[2-(2-chlorophenyl)cyclohexen-1-yl]methoxy]-2,3-dimethyl-phenyl]Propanoic Acid] were 1.34 µM and 1.25 µM.
For `Cc1c(CCC(=O)O)ccc(OCC2=C(c3ccc(OC(F)(F)F)cc3)CCCC2)c1C` [Compound 466, 3-[2,3-dimethyl-4-[[2-[4-(trifluoromethoxy)phenyl]cyclohexen-1-yl]methoxy]phenyl]Propanoic Acid], the EC50 at Human GPR120 short form [1] was 4.45 µM; at Human GPR120 short form [2], 1.45 µM.
On to `Cc1cc(CCC(=O)O)ccc1OCC1=C(c2ccc(Cl)s2)CCC(F)(F)C1` [Compound 542, 3-[4-[[2-(5-chloro-2-thienyl)-5,5-difluoro-cyclohexen-1-yl]methoxy]-3-methyl-phenyl]Propanoic Acid], for which the values for the EC50 (in assay [3]; at Human GPR120 short form [2]; on human GPR40) were 0.182 µM, 0.094 µM and 2.86 µM, respectively.
For `O=C(O)CCc1cc(F)c(OCC2=C(c3ccc(Cl)s3)CCC(F)(F)C2)c(F)c1` [Compound 543, 3-[4-[[2-(5-chloro-2-thienyl)-5,5-difluoro-cyclohexen-1-yl]methoxy]-3,5-difluoro-phenyl]Propanoic Acid] the same measures were 0.287 µM, 0.191 µM and greater than 5 µM.
For `Cc1cc(CCC(=O)O)ccc1OCC1=C(c2cnn(C)c2)CCC(F)(F)C1` [Compound 546, 3-[4-[[5,5-difluoro-2-(1-methylpyrazol-4-yl)cyclohexen-1-yl]methoxy]-3-methyl-phenyl]Propanoic Acid] the same measures were 1.65 µM, 0.754 µM and 2.35 µM.
For `Cc1cc(CCC(=O)O)ccc1OCC1=C(c2cncs2)CCC(F)(F)C1` [Compound 548, 3-[4-[(5,5-difluoro-2-thiazol-5-yl-cyclohexen-1-yl)methoxy]-3-methyl-phenyl]Propanoic Acid] the same measures were 1.34 µM, 0.5 µM and 3.49 µM.
Consider `Cc1ncc(C2=C(COc3ccc(CCC(=O)O)cc3C)CC(F)(F)CC2)s1` [Compound 550, 3-[4-[[5,5-difluoro-2-(2-methylthiazol-5-yl)cyclohexen-1-yl]methoxy]-3-methyl-phenyl]Propanoic Acid], for which the concentration for a half-maximal effect (EC50) in assay [3] was 0.437 µM; at Human GPR120 short form [2], 0.482 µM; at human GPR40, 0.642 µM.
Taken in the same sequence, the figures for `Cc1ncc(C2=C(COc3ccc(CCC(=O)O)c(C)c3C)CC(F)(F)CC2)s1` [Compound 553, 3-[4-[[5,5-difluoro-2-(2-methylthiazol-5-yl)cyclohexen-1-yl]methoxy]-2,3-dimethyl-phenyl]Propanoic Acid] were 0.727 µM, 0.525 µM and 2.34 µM.
For `Cc1c(CCC(=O)O)ccc(OCC2=C(c3ccc(C#N)s3)CCC(F)(F)C2)c1C` [Compound 558, 3-[4-[[2-(5-cyano-2-thienyl)-5,5-difluoro-cyclohexen-1-yl]methoxy]-2,3-dimethyl-phenyl]Propanoic Acid] the same measures were 1.31 µM, 0.381 µM and greater than 5 µM.
Taken in the same sequence, the figures for `Cc1cc(CCC(=O)O)ccc1OCC1=C(c2cccs2)CCC(F)(F)C1` [Compound 560, 3-[4-[[5,5-difluoro-2-(2-thienyl)cyclohexen-1-yl]methoxy]-3-methyl-phenyl]Propanoic Acid] were 0.175 µM, 0.118 µM and 4.1 µM.
Consider `Cc1ccc(C2=C(COc3c(F)cc(CCC(=O)O)cc3F)CC(F)(F)CC2)s1` [Compound 562, 3-[4-[[5,5-difluoro-2-(5-methyl-2-thienyl)cyclohexen-1-yl]methoxy]-3,5-difluoro-phenyl]Propanoic Acid], for which the EC50 in assay [3] is 0.245 µM; on Human GPR120 short form [2], 0.119 µM; on human GPR40 it was greater than 5 µM.
For `Cc1cc(CCC(=O)O)ccc1OCC1=C(c2ccc(Cl)cc2)CC(F)(F)CC1` [Compound 566, 3-[4-[[2-(4-chlorophenyl)-4,4-difluoro-cyclohexen-1-yl]methoxy]-3-methyl-phenyl]Propanoic Acid] the same measures were 0.209 µM, 0.165 µM and 3.34 µM.
For `O=C(O)CCc1cc(F)c(OCC2=C(c3ccco3)CCC(F)(F)C2)c(F)c1` [Compound 569, 3-[4-[[5,5-difluoro-2-(2-furyl)cyclohexen-1-yl]methoxy]-3,5-difluoro-phenyl]Propanoic Acid] the same measures were 0.519 µM, 0.299 µM and greater than 5 µM.
Turning to `N#Cc1ccc(C2=C(COc3c(F)cc(CCC(=O)O)cc3F)CC(F)(F)CC2)s1` [Compound 572, 3-[4-[[2-(5-cyano-2-thienyl)-5,5-difluoro-cyclohexen-1-yl]methoxy]-3,5-difluoro-phenyl]Propanoic Acid], the EC50 in assay [3] was 1.01 µM; on Human GPR120 short form [2], 0.641 µM; at human GPR40 it was greater than 5 µM.
For `Cc1cc(CCC(=O)O)ccc1OCC1=C(c2ccc(C#N)s2)CCC(F)(F)C1` [Compound 573, 3-[4-[[2-(5-cyano-2-thienyl)-5,5-difluoro-cyclohexen-1-yl]methoxy]-3-methyl-phenyl]Propanoic Acid] the same measures were 0.643 µM, 0.444 µM and 4.5 µM.
